Measured values reported in publication PMC11106739, “Discovery and Derivatization of Tridecaptin Antibiotics with Altered Host Specificity and Enhanced Bioactivity” (ACS Chemical Biology, 2024).
Values after ≈ are worked out from the molar mass of the structure shown. Where a SMILES comes first, the peptide text is derived from it. [ ]: non-standard residue; d: D form. The star is where a group is joined. d(aIle) = CC[C@H](C)[C@@H](N)C(=O)O; dDab = NCC[C@@H](N)C(=O)O; Octanoyl = CCCCCCCC(=O)*; Dab = NCC[C@H](N)C(=O)O

Experiments:
[1] = tested on: S. aureus 1126387; format: cell-based, Staphylococcus aureus; conditions: 1126387, 20 h
Method in brief: (§1)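 Values are visually read MICs from CLSI-style microdilution, final compound concentrations spanning 0.06 to 64 μg/mL in cation-adjusted medium, incubated 20 h at 35 °C.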

[2] = tested on: S. aureus UAMS-1625; format: cell-based, Staphylococcus aureus; conditions: S. aureus UAMS-1625 (BV18); CLSI broth dilution, cation-adjusted Mueller Hinton broth, 20 h, 35 °C, read visually
Method in brief: as §1

[3] = tested on: S. aureus ATCC 29213; format: cell-based, Staphylococcus aureus; conditions: ATCC 29213, 20 h
Method in brief: as §1

[4] = tested on: K. pneumoniae 1227947; format: cell-based, Klebsiella pneumoniae; conditions: 1227947, 20 h
Method in brief: as §1

[5] = tested on: K. pneumoniae 1228586; format: cell-based, Klebsiella pneumoniae; conditions: 1228586, 20 h
Method in brief: as §1

[6] = tested on: K. pneumoniae ATCC 13883; format: cell-based, Klebsiella pneumoniae; conditions: ATCC 13883, 20 h
Method in brief: as §1

[7] = tested on: P. aeruginosa 1226072; format: cell-based, Pseudomonas aeruginosa; conditions: 1226072, 20 h
Method in brief: as §1

[8] = tested on: P. aeruginosa PAO1; format: cell-based, Pseudomonas aeruginosa; conditions: PAO1, 20 h
Method in brief: as §1

[9] = tested on: P. aeruginosa 1218019; format: cell-based, Pseudomonas aeruginosa; conditions: 1218019, 20 h
Method in brief: as §1

[10] = tested on: ATCC 25922; format: cell-based, Enterococcus faecalis; conditions: ATCC 25922, 20 h
Method in brief: as §1

[11] = tested on: E. faecalis ATCC 29212; format: cell-based, Enterococcus faecalis; conditions: ATCC 29212, 20 h
Method in brief: as §1

[12] = tested on: S. aureus ATCC 29213; assay: LIVE/DEAD staining (SYTO 9 / propidium iodide); format: cell-based, Staphylococcus aureus; conditions: S. aureus ATCC 29213, 1 × MIC, 15 min, microscopy
Method: This assay was performed according to a previously described procedure.[55],[56] Briefly, overnight cultures of E. coli ATCC 25922 and S. aureus ATCC 29213 were diluted to an OD600 of 0.2 in MHB and mixed with 1 × MIC of Oct-TriA1, Oct-TriA5, and Oct-TriD. Nisin and polymyxin B were used as positive controls at a concentration of 2-fold MIC. At the same time, green fluorescent nucleic acid stain SYTO 9 (excitation, 450–490 nm; emission, 500–550 nm) and red fluorescent nucleic acid stain propidium iodide (excitation, 574–599 nm; emission, 612–682 nm) (LIVE/DEAD Baclight Bacterial Viability Kit, Invitrogen) were added to the above cell suspensions. After mixing and incubating for 15 min in the dark at RT, cells were briefly sedimented via centrifugation and resuspended in fresh MHB. Then, the cell suspensions were loaded on 1.5% agarose pads and analyzed by a Zeiss Imager M2 microscope. Confocal images were obtained at 4 random locations for each sample and visualized using FIJI version 1.51H.[57]

[13] = tested on: E. faecium IHMA 890472; format: cell-based, Enterococcus faecium; conditions: IHMA 890472, 20 h
Method in brief: as §1

[14] = tested on: E. faecium ATCC 51559; format: cell-based, Enterococcus faecium; conditions: ATCC 51559, 20 h
Method in brief: as §1

[15] = tested on: A. baumannii IHMA 777621; format: cell-based, Acinetobacter baumannii; conditions: IHMA 777621, 20 h
Method in brief: as §1

[16] = tested on: A. baumannii HUMC1; format: cell-based, Acinetobacter baumannii; conditions: HUMC1, 20 h
Method in brief: as §1

[17] = tested on: A. baumannii ATCC 17978; format: cell-based, Acinetobacter baumannii; conditions: ATCC 17978, 20 h
Method in brief: as §1

[18] = tested on: E. coli 1220120; format: cell-based, Escherichia coli; conditions: 1220120, 20 h
Method in brief: as §1

[19] = tested on: E. coli ATCC 25922; format: cell-based, Escherichia coli; conditions: ATCC 25922, 20 h
Method in brief: as §1

[20] = tested on: E. coli 1214245; format: cell-based, Escherichia coli; conditions: 1214245, 20 h
Method in brief: as §1

CCCCCCCC(=O)N[C@@H](C(=O)N[C@H](CCN)C(=O)NCC(=O)N[C@H](CO)C(=O)N[C@H](Cc1c[nH]c2ccccc12)C(=O)N[C@@H](CO)C(=O)N[C@@H](CCN)C(=O)N[C@H](CCN)C(=O)N[C@@H](Cc1ccccc1)C(=O)N[C@@H](CCC(=O)O)C(=O)N[C@H](C(=O)N[C@@H](C(=O)N[C@@H](C)C(=O)O)[C@@H](C)CC)C(C)C)C(C)C [Oct-TriA1] (Octanoyl-[dV][dDab]G[dS][dW]S[Dab][dDab]FEV[d(aIle)]A-OH)
MIC [1]: 32 µg/mL (≈ 21 µM)
MIC [2]: 32 µg/mL (≈ 21 µM)
MIC [3]: 32 µg/mL (≈ 21 µM)
MIC [4]: 4 µg/mL (≈ 2.63 µM)
MIC [5]: 4 µg/mL (≈ 2.63 µM)
MIC [6]: 4 µg/mL (≈ 2.63 µM)
MIC [7]: 8 µg/mL (≈ 5.26 µM)
MIC [8]: 64 µg/mL (≈ 42.1 µM)
MIC [9]: 4 µg/mL (≈ 2.63 µM)
MIC [10]: 32 µg/mL (≈ 21 µM)
MIC [11]: 32 µg/mL (≈ 21 µM)
LIVE/DEAD staining, membrane integrity of S. aureus cells [12]: still alive
MIC [13]: 16 µg/mL (≈ 10.5 µM)
MIC [14]: 32 µg/mL (≈ 21 µM)
MIC [15]: 8 µg/mL (≈ 5.26 µM)
MIC [16]: 16 µg/mL (≈ 10.5 µM)
MIC [17]: 8 µg/mL (≈ 5.26 µM)
MIC [18]: 2 µg/mL (≈ 1.32 µM)
MIC [19]: 2 µg/mL (≈ 1.32 µM)
MIC [20]: 2 µg/mL (≈ 1.32 µM)

CCCCCCCC(=O)N[C@H](Cc1ccccc1)C(=O)N[C@H](CCN)C(=O)N[C@@H](C(=O)N[C@H](CO)C(=O)N[C@H](Cc1c[nH]c2ccccc12)C(=O)N[C@@H](CO)C(=O)N[C@@H](CO)C(=O)N[C@H](CCN)C(=O)N[C@@H](Cc1c[nH]c2ccccc12)C(=O)N[C@@H](CO)C(=O)N[C@H](C(=O)N[C@@H](C(=O)N[C@@H](CCN)C(=O)O)[C@@H](C)CC)C(C)C)[C@H](C)CC [Oct-TriD] (Octanoyl-[dF][dDab][dI][dS][dW]SS[dDab]WSV[d(aIle)][Dab]-OH)
MIC [1]: 16 µg/mL (≈ 9.77 µM)
MIC [2]: 16 µg/mL (≈ 9.77 µM)
MIC [3]: 8 µg/mL (≈ 4.88 µM)
MIC [4]: >64 µg/mL
MIC [5]: 64 µg/mL (≈ 39.1 µM)
MIC [6]: 8 µg/mL (≈ 4.88 µM)
MIC [7]: 32 µg/mL (≈ 19.5 µM)
MIC [8]: >64 µg/mL
MIC [9]: 32 µg/mL (≈ 19.5 µM)
MIC [10]: 8 µg/mL (≈ 4.88 µM)
MIC [11]: 8 µg/mL (≈ 4.88 µM)
LIVE/DEAD staining, membrane integrity of S. aureus cells [12]: had lysed
MIC [13]: 4 µg/mL (≈ 2.44 µM)
MIC [14]: 4 µg/mL (≈ 2.44 µM)
MIC [15]: 8 µg/mL (≈ 4.88 µM)
MIC [16]: 16 µg/mL (≈ 9.77 µM)
MIC [17]: 16 µg/mL (≈ 9.77 µM)
MIC [18]: 16 µg/mL (≈ 9.77 µM)
MIC [19]: 32 µg/mL (≈ 19.5 µM)
MIC [20]: 16 µg/mL (≈ 9.77 µM)
